Holding throughout (assay type): biochemical
One assay deals with rice α-glucosidase (Oryza sativa subsp. japonica, UniProt Q653V7). The experiment in a line: Glycosidase inhibition, laboratory 1: rice α-glucosidase. As to conditions: methanol.
Assay [1] concerns rat intestinal maltase α-glucosidase. The assay can be described thus: Glycosidase inhibition, laboratory 1: rat intestinal maltase. As to conditions: methanol; for IC50: rat intestinal maltase α-glucosidase. From the text: (§1) The enzymes α-glucosidase (from yeast), β-glucosidases (from almond and bovine liver), α-galactosidase (from coffee beans), β-galactosidase (from bovine liver), α-mannosidase (from Jack bean), β-mannosidase (from snail), α-L-rhamnosidase (from Penicillium decumbens), α-L-fucosidase (from bovine kidney), trehalase (from porcine kidney), β-glucuronidases (from E. coli and bovine liver), amyloglucosidase (from A. niger), para-nitrophenyl glycosides, and various disaccharides were purchased from Sigma-Aldrich Co (St Louis, MO, USA).
(§2) Brush border membranes were prepared from the rat small intestine according to the method of Kessler et al. and were assayed at pH 6.8 for rat intestinal maltase using maltose. For rat intestinal maltase, porcine kidney trehalase, and A. niger amyloglucosidase activities, the reaction mixture contained 25 mM maltose and the appropriate amount of enzyme, and the incubations were performed for 10–30 min at 37 °C. The reaction was stopped by heating at 100 °C for 3 min. After centrifugation (600× g; 10 min), the resulting reaction mixture was added to the Glucose CII-test Wako (Wako Pure Chemical Ind., Osaka, Japan). The absorbance at 505 nm was measured to determine the amount of the released D-glucose. Other glycosidase activities were determined using an appropriate para-nitrophenyl glycoside as substrate at the optimum pH of each enzyme. The reaction mixture contained 2 mM of the substrate and the appropriate amount of enzyme. The reaction was stopped by addition of 400 mM Na2CO3. The released para-nitrophenol was measured spectrometrically at 400 nm. All reactions run in methanol.

The test system of another assay is almond β-glucosidase. The assay can be described thus: Glycosidase inhibition, laboratory 1: almond β-glucosidase. The note with it: methanol.
Source text: as §1, §2

Assay [2] has as its target T1, coffee beans α-galactosidase (Coffea arabica, UniProt Q42656).
T1 construct: purchased Sigma-Aldrich Co
The assay can be described thus: Glycosidase inhibition, laboratory 1: coffee beans α-galactosidase. As to conditions: methanol.
Source text: as §1, §2

For a further assay, the system named is porcine kidney trehalase. The assay can be described thus: Glycosidase inhibition, laboratory 1: trehalase. The note with it: methanol.
Source text: as §1, §2

Another assay has as its target T2, yeast α-glucosidase (Saccharomyces cerevisiae, UniProt P53341).
T2 construct: purchased Sigma
The experiment in a line: Glycosidase inhibition, laboratory 2: yeast α-glucosidase. As to conditions: for inhibition at 400 µM: read-out: % inhibition at ~400 μM, water; for % inhibition at ~400 μM: water. How it is done: (§3) All enzymes and para-nitrophenyl substrates were purchased from Sigma. Enzymes were assayed at 27 °C in 0.1 M citric acid/0.2 M disodium hydrogen phosphate buffers at the optimum pH for the enzyme. The incubation mixture consisted of 10 μL enzyme solution, 10 μL of 1 mg/mL aqueous solution of extract and 50 μL of the appropriate 5 mM para-nitrophenyl substrate made up in buffer at the optimum pH for the enzyme. The reactions were stopped by addition of 70 μL 0.4 M glycine (pH 10.4) during the exponential phase of the reaction, which had been determined at the beginning using uninhibited assays in which water replaced inhibitor. Final absorbances were read at 405 nm using a Versamax microplate reader (Molecular Devices). Assays were carried out in triplicate, and the values given are means of the three replicates per assay. All reactions run in water.

The target in the next assay is T3, Jack bean α-mannosidase (Canavalia ensiformis, UniProt C0HJB3).
T3 construct: purchased Sigma-Aldrich Co
T3 sequence (C0HJB3 1-981): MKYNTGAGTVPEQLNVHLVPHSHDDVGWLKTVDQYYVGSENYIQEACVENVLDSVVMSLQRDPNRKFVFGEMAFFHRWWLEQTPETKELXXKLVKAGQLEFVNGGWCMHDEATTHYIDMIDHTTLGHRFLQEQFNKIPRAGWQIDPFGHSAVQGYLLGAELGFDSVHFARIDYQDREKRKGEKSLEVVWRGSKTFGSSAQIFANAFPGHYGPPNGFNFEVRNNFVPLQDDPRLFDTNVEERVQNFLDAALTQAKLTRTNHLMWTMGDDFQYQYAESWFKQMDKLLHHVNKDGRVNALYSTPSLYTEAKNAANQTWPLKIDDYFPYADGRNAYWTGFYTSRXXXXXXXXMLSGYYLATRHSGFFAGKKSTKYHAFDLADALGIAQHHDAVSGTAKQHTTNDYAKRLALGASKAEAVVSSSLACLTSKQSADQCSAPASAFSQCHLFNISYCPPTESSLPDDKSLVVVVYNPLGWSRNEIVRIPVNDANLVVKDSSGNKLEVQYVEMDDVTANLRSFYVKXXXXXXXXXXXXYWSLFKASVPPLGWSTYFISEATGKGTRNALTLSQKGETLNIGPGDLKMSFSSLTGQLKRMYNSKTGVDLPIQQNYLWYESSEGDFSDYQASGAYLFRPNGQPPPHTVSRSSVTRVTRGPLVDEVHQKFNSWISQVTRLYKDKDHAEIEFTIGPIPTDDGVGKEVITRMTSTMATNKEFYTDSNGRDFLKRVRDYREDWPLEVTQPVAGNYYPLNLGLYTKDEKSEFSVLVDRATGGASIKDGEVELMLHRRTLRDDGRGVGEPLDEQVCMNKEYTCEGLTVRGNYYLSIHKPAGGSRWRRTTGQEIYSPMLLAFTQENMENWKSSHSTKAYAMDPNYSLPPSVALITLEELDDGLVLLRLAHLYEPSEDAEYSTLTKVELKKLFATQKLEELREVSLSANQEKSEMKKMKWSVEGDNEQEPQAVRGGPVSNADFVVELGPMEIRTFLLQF
The assay can be described thus: Glycosidase inhibition, laboratory 2: Jack bean α-mannosidase. As to conditions: for inhibition at 400 µM: read-out: % inhibition at ~400 μM, water; for % inhibition at ~400 μM: water. How it is done: as §3

In assay [3] the test system is bovine liver β-glucuronidase. The experiment in a line: Glycosidase inhibition, laboratory 2: bovine liver β-glucuronidase. The note with it: water. As for the experimental part: as §3

As a reminder, the inhibition is the relative decrease from the control value, in per cent. For orientation: % inhibition means the drop in the measured response relative to a control, in per cent. The IC50 is the concentration at which inhibition is half-maximal. Low readings indicate inhibition by little substance, high ones a need for much substance.

T2 sequence (P53341 whole entry): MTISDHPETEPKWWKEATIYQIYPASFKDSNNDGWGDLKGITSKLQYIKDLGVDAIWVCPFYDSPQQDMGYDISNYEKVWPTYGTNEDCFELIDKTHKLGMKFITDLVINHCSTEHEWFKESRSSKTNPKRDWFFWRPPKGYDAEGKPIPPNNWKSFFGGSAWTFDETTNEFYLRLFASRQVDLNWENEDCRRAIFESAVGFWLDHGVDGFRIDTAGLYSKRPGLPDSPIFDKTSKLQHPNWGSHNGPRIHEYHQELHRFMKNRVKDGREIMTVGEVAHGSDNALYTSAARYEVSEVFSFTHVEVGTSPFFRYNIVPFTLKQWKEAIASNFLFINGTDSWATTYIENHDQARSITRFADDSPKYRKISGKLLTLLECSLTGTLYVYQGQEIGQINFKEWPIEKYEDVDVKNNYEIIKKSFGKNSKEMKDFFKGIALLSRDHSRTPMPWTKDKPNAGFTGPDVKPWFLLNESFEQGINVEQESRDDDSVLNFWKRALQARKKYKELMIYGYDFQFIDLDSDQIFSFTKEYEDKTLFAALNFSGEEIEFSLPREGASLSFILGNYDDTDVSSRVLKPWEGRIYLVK
Chain of rice α-glucosidase (Q653V7 34-885): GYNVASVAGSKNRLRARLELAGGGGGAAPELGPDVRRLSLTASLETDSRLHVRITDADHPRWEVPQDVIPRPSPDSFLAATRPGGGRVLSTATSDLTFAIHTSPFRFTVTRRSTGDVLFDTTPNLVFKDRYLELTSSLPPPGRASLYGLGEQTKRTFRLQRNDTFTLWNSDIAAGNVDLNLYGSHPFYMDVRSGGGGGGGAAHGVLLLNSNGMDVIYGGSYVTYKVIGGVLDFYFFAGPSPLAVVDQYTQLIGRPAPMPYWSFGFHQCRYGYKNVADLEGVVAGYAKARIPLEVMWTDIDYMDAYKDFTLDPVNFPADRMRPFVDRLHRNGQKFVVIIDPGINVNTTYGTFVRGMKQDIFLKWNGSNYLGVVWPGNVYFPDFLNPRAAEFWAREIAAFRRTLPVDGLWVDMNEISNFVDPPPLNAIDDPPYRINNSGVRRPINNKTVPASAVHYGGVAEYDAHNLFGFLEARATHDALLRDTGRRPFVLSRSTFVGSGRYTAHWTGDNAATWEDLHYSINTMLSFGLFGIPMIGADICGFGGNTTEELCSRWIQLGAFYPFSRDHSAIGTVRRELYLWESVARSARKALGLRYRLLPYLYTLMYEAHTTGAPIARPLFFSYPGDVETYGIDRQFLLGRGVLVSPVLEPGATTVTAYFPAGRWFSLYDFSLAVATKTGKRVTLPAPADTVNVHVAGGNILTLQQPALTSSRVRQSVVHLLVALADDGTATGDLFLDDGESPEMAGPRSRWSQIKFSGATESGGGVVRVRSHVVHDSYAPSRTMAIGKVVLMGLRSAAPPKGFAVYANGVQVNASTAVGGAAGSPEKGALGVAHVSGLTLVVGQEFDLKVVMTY
T1 sequence (Q42656 16-378): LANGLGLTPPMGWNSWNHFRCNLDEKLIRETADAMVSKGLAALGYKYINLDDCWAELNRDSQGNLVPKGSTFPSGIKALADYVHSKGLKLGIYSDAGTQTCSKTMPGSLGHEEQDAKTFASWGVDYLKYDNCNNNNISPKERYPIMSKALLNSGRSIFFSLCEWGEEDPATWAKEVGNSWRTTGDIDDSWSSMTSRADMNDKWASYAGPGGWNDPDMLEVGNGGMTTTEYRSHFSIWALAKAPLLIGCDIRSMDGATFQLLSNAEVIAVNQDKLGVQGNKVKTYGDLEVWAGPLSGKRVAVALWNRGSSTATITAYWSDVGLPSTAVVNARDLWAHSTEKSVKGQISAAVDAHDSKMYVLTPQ

Take `CC1(C)OB(c2cccc(CN3C(=O)c4c(Cl)c(Cl)c(Cl)c(Cl)c4C3=O)c2)OC1(C)C` [meta 3, 4,5,6,7-Tetrachloro-2-(3-(4,4,5,5-tetramethyl-1,3,2-dioxaborolan-2-yl)benzyl)isoindoline-1,3-dione]: the inhibition at 10 µM on rice α-glucosidase was found to be 5.1%; in assay [2] it was 3.5%. Also, the “inhibition % at 10 μM” value is reported as “^cNI ^d (22.1%)” in assay [1] (rat intestinal maltase) and “^cNI ^d (5.0%)” in the assay with almond β-glucosidase. Further, the “inhibition % at 100 μM” value in the assay on porcine kidney trehalase is “^aNI ^b (0%)”. The inhibition at 400 µM on yeast α-glucosidase was 32.2%; at Jack bean α-mannosidase, 30.3%. Further, the “% inhibition at ~400 μM” value in assay [3] came out at 5.8%.

Consider `CC1(C)OB(c2cccc(NC(=O)c3cc(Cl)c(Cl)c(Cl)c3Cl)c2)OC1(C)C` [meta 5, 2,3,4,5-tetrachloro-N-(3-(4,4,5,5-tetramethyl-1,3,2-dioxaborolan-2-yl)phenyl)benzamide], for which the inhibition at 100 µM was 45.5% against rice α-glucosidase (100 μM) and 30.2% in assay [2] (100 μM). The IC50 in assay [1] was determined as 274 µM. Further, the “inhibition % at 100 μM” value in the assay with almond β-glucosidase is on record as “^aNI ^b (30.2%)”; in the assay with porcine kidney trehalase, “^aNI ^b (0%)”. Besides, the inhibition at 400 µM at yeast α-glucosidase came to 82.8%; at Jack bean α-mannosidase, 2.2%. For the same compound, the “% inhibition at ~400 μM” value in assay [3] is −5.7%.

On to `CC1(C)OB(c2ccccc2CNC(=O)c2cc(Cl)c(Cl)c(Cl)c2Cl)OC1(C)C` [ortho 8, 2,3,4,5-tetrachloro-N-(2-(4,4,5,5-tetramethyl-1,3,2-dioxaborolan-2-yl)benzyl)benzamide], for which the inhibition at 100 µM came out at 0% against rice α-glucosidase (100 μM) and 114% in assay [2] (100 μM). Besides, the IC50 in assay [1] was 305 µM; at almond β-glucosidase, 254 µM. Also, the “inhibition % at 100 μM” value with porcine kidney trehalase is reported as “^aNI ^b (16.8%)”. Also, the inhibition at 400 µM was 68.9% at yeast α-glucosidase and -6.1% at Jack bean α-mannosidase. The “% inhibition at ~400 μM” value in assay [3] is recorded as −6.3%.

As to `CC1(C)OB(c2ccccc2NC(=O)c2cc(Cl)c(Cl)c(Cl)c2Cl)OC1(C)C` [ortho 5, 2,3,4,5-Tetrachloro-N-(2-(4,4,5,5-tetramethyl-1,3,2-dioxaborolan-2-yl)phenyl)benzamide], the inhibition at 10 µM (at rice α-glucosidase; in assay [2]) was 0% each time. Also, the “inhibition % at 10 μM” value in assay [1] (rat intestinal maltase) is listed as “^cNI ^d(3%)”; in the assay on almond β-glucosidase, “^cNI ^d (11.6%)”; in the assay with porcine kidney trehalase (10 μM), “^cNI ^d (1.2%)”. Also, the inhibition at 400 µM on yeast α-glucosidase worked out at 17.3%; on Jack bean α-mannosidase it was 0%. For the same compound, the “% inhibition at ~400 μM” value in assay [3] was −3.5%.

On to `CC1(C)OB(c2ccc(CN3C(=O)c4c(Cl)c(Cl)c(Cl)c(Cl)c4C3=O)cc2)OC1(C)C` [para 3, 4,5,6,7-Tetrachloro-2-(4-(4,4,5,5-tetramethyl-1,3,2-dioxaborolan-2-yl)benzyl)isoindoline-1,3-dione], for which the inhibition at 100 µM is 5.6% against rice α-glucosidase (100 μM) and 0.2% in assay [2] (100 μM). Further, the “inhibition % at 100 μM” value in assay [1] (rat intestinal maltase) is reported as “^aNI ^b (12.2%)”; in the assay with almond β-glucosidase it was “^aNI ^b (0.7%)”; in the assay with porcine kidney trehalase it was “^aNI ^b (0%)”. Further, the inhibition at 400 µM at yeast α-glucosidase worked out at 29.3%; at Jack bean α-mannosidase, 16.5%. Also, in assay [3], the “% inhibition at ~400 μM” value worked out at 2.1%.

On to `N[C@@H](Cc1ccc(B(O)O)cc1)C(=O)O` [BPA, 4-borono-L-phenylalanine, reference compound], for which the figures for the “inhibition % at 100 μM” value (in assay [1] (rat intestinal maltase); in the assay with almond β-glucosidase; in the assay with porcine kidney trehalase) were “^cNI ^d(0%)”, “^cNI ^d (0%)” and “^cNI ^d (0%)”, respectively. In addition, the inhibition at 400 µM amounted to 2.9% at yeast α-glucosidase and 0.6% at Jack bean α-mannosidase. Moreover, in assay [3] (400 µM), the “% inhibition at ~400 μM” value is recorded as −0.7%.

In the case of `N[C@@H](Cc1ccc(B(O)O)cc1)C(=O)O` [^10B-BPA, reference compound], the “inhibition % at 100 μM” value is listed as “^cNI ^d(0%)” against rice α-glucosidase (100 μM); “^cNI ^d (0%)” in assay [1] (rat intestinal maltase); “^cNI ^d (0%)” in the assay with almond β-glucosidase; “^cNI ^d (1.2%)” in assay [2] (100 μM); “^cNI ^d (0%)” in the assay on porcine kidney trehalase. For the same compound, the figures for the “% inhibition at ~400 μM” value (on yeast α-glucosidase; at Jack bean α-mannosidase; in assay [3] (400 µM)) were 3.4%, −0.7% and −1%, respectively.

On to “Borocaptate sodium [BSH, reference compound]”, for which the “inhibition % at 1000 μM” value on rice α-glucosidase (1000 μM) was “^aNI ^b(0%)”; in assay [1] (rat intestinal maltase, 1000 μM), “^aNI ^b(0%)”; in the assay with almond β-glucosidase (1000 μM), “^aNI ^b (0%)”; in assay [2] (1000 μM), “^aNI ^b (12.3%)”; with porcine kidney trehalase (1000 μM), “^aNI ^b (4.2%)”. Also, the “% inhibition at ~400 μM” value at yeast α-glucosidase is 59%; at Jack bean α-mannosidase, −18.7%; in assay [3], 31.6%.

Regarding `CC1(C)OB(c2ccc(NC(=O)c3cc(Cl)c(Cl)c(Cl)c3Cl)cc2)OC1(C)C` [para 5, 2,3,4,5-tetrachloro-N-(4-(4,4,5,5-tetramethyl-1,3,2-dioxaborolan-2-yl)phenyl)benzamide], the inhibition at 100 µM at rice α-glucosidase (100 μM) came out at 0%; in assay [2] (100 μM), 35.8%. The same compound had an IC50 in assay [1] of 188 µM. Moreover, the “inhibition % at 100 μM” value with almond β-glucosidase is “^aNI ^b (17.1%)”; in the assay with porcine kidney trehalase, “^aNI ^b (0%)”. The inhibition at 400 µM on yeast α-glucosidase was 38.4%; on Jack bean α-mannosidase, -8.2%. Further, the “% inhibition at ~400 μM” value in assay [3] is listed as −2.2%.

Values taken from PMC9182199, “Borylated 2,3,4,5-Tetrachlorophthalimide and Their 2,3,4,5-Tetrachlorobenzamide Analogues: Synthesis, Their Glycosidase Inhibition and Anticancer Properties in View to Boron Neutron Capture Therapy” (Molecules, 2022).
